Source: a melting point compilation (Tetko et al.; mined from patent text by program, amines drawn as free bases though some values may be those of a salt)

First: C=C(C)C(=O)Nc1ccc(NC(=O)C(=C)C)cc1
Second: CC(=O)Nc1ccc(C(=O)NC2CCN(C3CCCCC3)C2)cc1 (stereo not drawn)
The melting point of the first is higher: 254 to 257 °C for the first, 184 to 186 °C for the second.

Compared with `O=CN1CC2CC1CN2c1cc2c(cc1F)c(=O)c(C(=O)O)cn2-c1ccc(F)cc1` (stereo not drawn), `O=c1cc2c(nn1-c1ccc(Cl)cc1)-c1cc(Br)sc1S(=O)CC2` (stereo not drawn) is lower in melting point: 274 to 276 °C for the first, 184 to 185 °C for the second.

Compared with `Brc1nc(Br)n(COCc2ccccc2)c1Sc1ccccc1`, `COC(=O)C(C)(C)CCCOc1cc(C)c(OCc2ccccc2)c(C)c1C` is lower in melting point: 89 to 90 °C for the first, 67 to 68 °C for the second.

Compared with `COc1ccc(-n2c(C)nc3cnccc32)cc1OC1CCCC1`, `CNc1nc(-c2cccc(N)c2)c2cc(OC)c(OC)cc2n1` is higher in melting point: 144 to 145 °C for the first, 197 to 199 °C for the second.

First: COc1cc(NC(=O)CC23CC4CC(CC(C4)C2)C3)cc(OC)c1
Second: COC(=O)c1cc(OC)cc(-c2cccc([N+](=O)[O-])c2)n1
The melting point of the first is lower: 144 to 146 °C for the first, 150 to 152 °C for the second.

First: CC(C)c1ccc2nc3c(C(=O)NCCCCc4cccnc4)cccn3c(=O)c2c1
Second: CCCc1c(C(=O)CCl)c2ccc(C(=O)OC)cc2n1Cc1ccccc1Cl
The melting point of the first is lower: 129 to 130 °C for the first, 143 to 145 °C for the second.

First: OC(CCl)Cn1c2ccccc2c2cc(-c3ccc4c(c3)c3ccccc3n4CC(O)CCl)ccc21 (stereo not drawn)
Second: CCCCc1nc(NC(=O)Nc2ccccc2)[nH]c(=O)c1Cc1ccc(-c2ccccc2C(=O)OC)cc1
The melting point of the first is lower: 152 to 153 °C for the first, 217 to 219 °C for the second.

Compared with `CCOC(=O)NCSSc1ccc([N+](=O)[O-])cc1C(Cl)(Cl)Cl`, `CCOC(=O)NS(=O)(=O)c1ccc2c(c1)C(=O)CO2` is higher in melting point: 90 to 91 °C for the first, 118 to 119 °C for the second.

First: CCCc1ccnc2c(=O)[nH]c(-c3cc(S(=O)(=O)NC)ccc3OCC)nc12
Second: CC(CO)Oc1cc(Oc2ccc(S(C)(=O)=O)cc2)cc2cc(C3=NCC(CC(N)=O)S3)[nH]c12 (stereo not drawn)
The melting point of the first is higher: 216 to 219 °C for the first, 137 to 142 °C for the second.

First: O=C(CC1CCCCC1)Nc1c(Cl)ccc2nc(N3CCC(c4noc(=O)[nH]4)CC3)ccc12
Second: Cn1cc2c(C3C(=O)Nc4ccc(Br)cc43)nc(Cl)nc2n1 (stereo not drawn)
The melting point of the first is lower: 233 to 235 °C for the first, over 300 °C for the second.

First: COc1cc(N(C)C)cc(CN(C)CCc2ccc(N=C(N)c3cccs3)cc2)c1O
Second: CCOCc1cc2cc(Br)ccc2oc1=Nc1ccc(OC)cc1
The melting point of the first is lower: 91 to 93 °C for the first, 134 to 135 °C for the second.

Compared with `COC(=O)C1C2C=CC(C2)C1N(C)S(=O)(=O)c1ccc(OCc2ccccc2)cc1` (stereo not drawn), `Cc1ccc(S(=O)(=O)Oc2ccc(S(=O)(=O)c3c(C)cn4ccccc34)cc2)cc1` is higher in melting point: 103 to 104 °C for the first, 169 °C for the second.

Compared with `Cc1ccc(S(=O)(=O)N2CCCC2c2cccnc2)cc1` (racemic), `Cc1cc(-n2ccc(OCCCO)cc2=O)sc1C(=O)NCc1cccc(F)c1` is higher in melting point: 112 °C for the first, 135 to 137 °C for the second.

First: CC(=O)N[C@@H](CC(C)C)C(=O)N[C@@H](CC(C)C)C(=O)N[C@H]1CCCOC1OC(C)=O (stereo partly drawn)
Second: COc1ccc(C(=O)N[C@@H](Cc2ccc(OC(=O)c3ccc(OC)cc3)cc2)C(=O)O)cc1
The melting point of the first is higher: 238 to 240 °C for the first, 171 to 174 °C for the second.

Compared with `S=c1n(-c2ccc(Cl)cc2Cl)nc2n1CCCC2`, `Cc1cc(=O)oc2cc(S)ccc12` is higher in melting point: 118 to 120 °C for the first, 136 °C for the second.

Compared with `COc1cc(C=CC(=O)c2ccc(O)c(CC(=O)O)c2)cc(OC)c1OC`, `CCOP(=O)(/C=C/c1cn(-c2ccccc2)nc1OCc1ccc(OCc2nc(-c3cccc(C(=O)O)c3)oc2C)cc1)OCC` is lower in melting point: 210 °C for the first, 153 to 155 °C for the second.

First: CCCCCN(CCCCC)C(=O)C(CCC(=O)OC)CS(=O)c1ccc(Cl)c(Cl)c1 (stereo not drawn)
Second: CCOC(=O)c1ccc(-c2nc(CCl)c(C)o2)o1
The melting point of the first is lower: 64 to 65 °C for the first, 117 to 118 °C for the second.

First: NC(=O)N(O)Cc1ccc(Br)s1
Second: O=C(O)C1c2cc(Br)ccc2COc2ccc(Br)cc21 (stereo not drawn)
The melting point of the first is lower: 145 to 147 °C for the first, 179 to 182 °C for the second.

First: CCN(CC1CCCC1)c1nc2ccccc2cc1CN(Cc1cc(C(F)(F)F)cc(C(F)(F)F)c1)c1nnc(C)o1
Second: N#CN=C1NCCN1Cc1ccccc1
The melting point of the first is higher: 126 to 127 °C for the first, 120 to 122 °C for the second.
